Measured values published in ChEMBL document CHEMBL1135808, “A new type of mixed anhydride and its applications to the synthesis of 7-substituted 8-chloro-5,5-dioxoimidazo[1,2-b][1,4,2]benzodithiazines with in vitro antitumor activity” (2002).

Legend:
HCC 2998 = experiment: In vitro growth inhibition against colon cancer HCC2998 cell line was reported.; type: functional; conditions: Homo sapiens
HOP-62 [1] = experiment: In vitro total growth inhibition against non-small-cell lung cancer HOP-62 cell lines was reported.; type: functional; conditions: Homo sapiens, read-out: Log TGI (converted)
MDA-MB-435 [2] = experiment: In vitro total growth inhibition against breast cancer MDA-MB-435 cell lines was reported.; conditions: Homo sapiens, read-out: Log TGI (converted)
HCT-116 [3] = experiment: In vitro total growth inhibition against colon cancer HCT116 cell lines was reported.; type: functional; conditions: Homo sapiens, read-out: Log TGI (converted)
NCI-H23 [4] = experiment: In vitro total growth inhibition against non-small-cell lung cancer NCI-H23 cell lines was reported.; type: functional; conditions: Homo sapiens, read-out: Log TGI (converted)
SK-MEL-2 [5] = experiment: In vitro total growth inhibition against melanoma SK-MEL-2 cell lines was reported.; type: functional; conditions: Homo sapiens, read-out: Log TGI (converted)
IGROV-1 [6] = experiment: In vitro growth inhibition against ovarian cancer IGROV1 cell line was reported.; type: functional; conditions: Homo sapiens
OVCAR-3 = experiment: In vitro total growth inhibition against ovarian cancer OVCAR-3 cell lines was reported.; type: functional; conditions: Homo sapiens, read-out: Log TGI (converted)
RXF 393 [7] = experiment: Log of molar concentration leading to 50% cell death against renal cancer RXF 393 cell line was reported; type: functional; conditions: Homo sapiens, read-out: Log LC50 (the source's name) (converted)
U-251 [8] = experiment: In vitro total growth inhibition against CNS cancer U251 cell lines was reported.; type: functional; conditions: Homo sapiens, read-out: Log TGI (converted)
SK-MEL-5 [9] = experiment: In vitro total growth inhibition against melanoma SK-MEL-5 cell lines was reported.; type: functional; conditions: Homo sapiens, read-out: Log TGI (converted)
SK-MEL-2 [10] = experiment: Log of molar concentration leading to 50% cell death against melanoma SK-MEL-2 cell line was reported; type: functional; conditions: Homo sapiens, read-out: Log LC50 (the source's name) (converted)
NCI/ADR-RES [11] = experiment: In vitro growth inhibition against breast cancer NCI/ADR-RES cell line was reported.; type: functional; conditions: Homo sapiens
UACC-257 [12] = experiment: In vitro total growth inhibition against melanoma UACC-257 cell lines was reported.; type: functional; conditions: Homo sapiens, read-out: Log TGI (converted)
SNB-19 = experiment: In vitro growth inhibition against CNS cancer SNB-19 cell line was reported.; type: functional; conditions: Homo sapiens
PC-3 = experiment: Log of molar concentration leading to 50% cell death against prostate cancer PC-3 cell line was reported; type: functional; conditions: Homo sapiens, read-out: Log LC50 (the source's name) (converted)
UACC-257 [13] = experiment: In vitro total growth inhibition against melanoma UACC-257 cell line was reported.; type: functional; conditions: Homo sapiens
IGROV-1 [14] = experiment: Log of molar concentration leading to 50% cell death against ovarian cancer IGROV1 cell line was reported; type: functional; conditions: Homo sapiens, read-out: Log LC50 (the source's name) (converted)
HCT-116 [15] = experiment: In vitro growth inhibition against colon cancer HCT116 cell line was reported.; type: functional; conditions: Homo sapiens
SNB-75 = experiment: In vitro growth inhibition against CNS cancer SNB-75 cell line was reported.; type: functional; conditions: Homo sapiens
RPMI-8226 = experiment: In vitro total growth inhibition against leukemia […] cell lines was reported.; type: functional; conditions: Homo sapiens, read-out: Log TGI (converted)
DU-145 = experiment: Log of molar concentration leading to 50% cell death against prostate cancer […] cell line was reported; type: functional; conditions: Homo sapiens, read-out: Log LC50 (the source's name) (converted)
UACC-62 = experiment: In vitro growth inhibition against melanoma UACC-62 cell line was reported.; type: functional; conditions: Homo sapiens
MCF7 [16] = experiment: In vitro total growth inhibition against breast cancer MCF 7 cell lines was reported.; type: functional; conditions: Homo sapiens, read-out: Log TGI (converted)
SF-539 [17] = experiment: In vitro total growth inhibition against CNS cancer SF-539 cell lines was reported.; type: functional; conditions: Homo sapiens, read-out: Log TGI (converted)
786-0 = experiment: Log of molar concentration leading to 50% cell death against renal cancer […] cell line was reported; type: functional; conditions: Homo sapiens, read-out: Log LC50 (the source's name) (converted)
Homo sapiens = species on record: Homo sapiens; experiment: In vitro total growth inhibition against non-small-cell lung cancer EKVX cell lines was reported.; type: functional; conditions: read-out: Log TGI (converted)
SF-295 = experiment: In vitro growth inhibition against CNS cancer SF-295 cell line was reported.; type: functional; conditions: Homo sapiens
MCF7 [18] = experiment: In vitro growth inhibition against breast cancer MCF 7 cell line was reported.; type: functional; conditions: Homo sapiens
SK-MEL-5 [19] = experiment: Log of molar concentration leading to 50% cell death against melanoma SK-MEL-5 cell line was reported; type: functional; conditions: Homo sapiens, read-out: Log LC50 (the source's name) (converted)
SK-MEL-28 = experiment: In vitro growth inhibition against melanoma SK-MEL-28 cell line was reported.; type: functional; conditions: Homo sapiens
HOP-92 = experiment: In vitro growth inhibition against non-small-cell lung cancer HOP-92 cell line was reported.; type: functional; conditions: Homo sapiens
HCT-15 [20] = experiment: In vitro growth inhibition against colon cancer […] cell line was reported.; type: functional; conditions: Homo sapiens
SF-539 [21] = experiment: In vitro growth inhibition against CNS cancer SF-539 cell line was reported.; type: functional; conditions: Homo sapiens
Malme-3M = experiment: In vitro growth inhibition against melanoma MALME 3M cell line was reported.; type: functional; conditions: Homo sapiens
RXF 393 [22] = experiment: In vitro growth inhibition against renal cancer RXF 393 cell line was reported.; type: functional; conditions: Homo sapiens
MDA-MB-435 [23] = experiment: In vitro growth inhibition against breast cancer MDA-MB-435 cell line was reported.; conditions: Homo sapiens
TK-10 [24] = experiment: In vitro total growth inhibition against renal cancer TK-10 cell lines was reported.; type: functional; conditions: Homo sapiens, read-out: Log TGI (converted)
KM12 = experiment: Log of molar concentration leading to 50% cell death against colon cancer KM12 cell line was reported; type: functional; conditions: Homo sapiens, read-out: Log LC50 (the source's name) (converted)
UACC-257 [25] = experiment: Log of molar concentration leading to 50% cell death against melanoma UACC-257 cell line was reported; type: functional; conditions: Homo sapiens, read-out: Log LC50 (the source's name) (converted)
U-251 [26] = experiment: Log of molar concentration leading to 50% cell death against CNS cancer U251 cell line was reported; type: functional; conditions: Homo sapiens, read-out: Log LC50 (the source's name) (converted)
NCI-H322M = experiment: Log of molar concentration leading to 50% cell death against non-small-cell lung cancer NCI-H322M cell line was reported; type: functional; conditions: Homo sapiens, read-out: Log LC50 (the source's name) (converted)
HCT-15 [27] = experiment: In vitro total growth inhibition against colon cancer HCT-15 cell lines was reported.; type: functional; conditions: Homo sapiens, read-out: Log TGI (converted)
SF-268 = experiment: In vitro growth inhibition against CNS cancer SF-268 cell line was reported.; type: functional; conditions: Homo sapiens
CAKI-1 = experiment: In vitro total growth inhibition against renal cancer CAKI-1cell lines was reported.; type: functional; conditions: Homo sapiens, read-out: Log TGI (converted)
A549 = experiment: In vitro total growth inhibition against non-small-cell lung cancer A 549/ATCC cell lines was reported.; type: functional; conditions: Homo sapiens, read-out: Log TGI (converted)
EKVX [28] = experiment: In vitro growth inhibition against non-small-cell lung cancer EKVX cell line was reported.; type: functional; conditions: Homo sapiens
NCI-H46 = experiment: In vitro growth inhibition against non-small-cell lung cancer […] cell line was reported.; type: functional; conditions: Homo sapiens
MDA-N = experiment: In vitro growth inhibition against breast cancer MDA-N cell line was reported.; type: functional; conditions: Homo sapiens
HT-29 = experiment: In vitro total growth inhibition against colon cancer HT-29 cell lines was reported.; type: functional; conditions: Homo sapiens, read-out: Log TGI (converted)
EKVX [29] = experiment: Log of molar concentration leading to 50% cell death against non-small-cell lung cancer EKVX cell line was reported; type: functional; conditions: Homo sapiens, read-out: Log LC50 (the source's name) (converted)
K562 = experiment: In vitro total growth inhibition against leukemia K-562 cell lines was reported.; type: functional; conditions: Homo sapiens, read-out: Log TGI (converted)
Tumor Cell line = experiment: In vitro inhibition of 50% cell growth was reported as log of molar concentration for 60 cell lines.; type: functional; conditions: Homo sapiens
MCF7 [30] = experiment: Log of molar concentration leading to 50% cell death against breast cancer MCF 7 cell line was reported; type: functional; conditions: Homo sapiens, read-out: Log LC50 (the source's name) (converted)
NCI/ADR-RES [31] = experiment: In vitro total growth inhibition against breast cancer NCI/ADR-RES cell lines was reported.; type: functional; conditions: Homo sapiens, read-out: Log TGI (converted)
NCI-H23 [32] = experiment: In vitro growth inhibition against non-small-cell lung cancer NCI-H23 cell line was reported.; type: functional; conditions: Homo sapiens
TK-10 [33] = experiment: In vitro growth inhibition against renal cancer TK-10 cell line was reported.; type: functional; conditions: Homo sapiens
LOX IMVI = experiment: In vitro growth inhibition against melanoma LOX IMVI cell line was reported.; type: functional; conditions: Homo sapiens
HOP-62 [34] = experiment: In vitro growth inhibition against non-small-cell lung cancer HOP-62 cell line was reported.; type: functional; conditions: Homo sapiens

SMILES: Cc1ccc2cccc(NC(=O)c3cc4c(cc3Cl)Sc3nccn3S4(=O)=O)c2n1
- GI50 (HCC 2998): 1.82 µM
- TGI (HOP-62 [1]): 16.2 µM
- TGI (MDA-MB-435 [2]): 22.9 µM
- TGI (HCT-116 [3]): 17 µM
- TGI (NCI-H23 [4]): 56.2 µM
- TGI (SK-MEL-2 [5]): 32.4 µM
- GI50 (IGROV-1 [6]): 3.24 µM
- TGI (OVCAR-3): 11.5 µM
- CC50 (RXF 393 [7]): 64.6 µM
- TGI (U-251 [8]): 14.5 µM
- TGI (SK-MEL-5 [9]): 23.4 µM
- CC50 (SK-MEL-2 [10]): 77.6 µM
- GI50 (NCI/ADR-RES [11]): 14.5 µM
- TGI (UACC-257 [12]): 26.9 µM
- GI50 (SNB-19): 10.2 µM
- CC50 (PC-3): 32.4 µM
- GI50 (UACC-257 [13]): 13.8 µM
- CC50 (IGROV-1 [14]): 23.4 µM
- GI50 (HCT-116 [15]): 4.57 µM
- GI50 (SNB-75): 6.92 µM
- TGI (RPMI-8226): 3.8 µM
- CC50 (DU-145): 42.7 µM
- GI50 (UACC-62): 14.5 µM
- TGI (MCF7 [16]): 14.8 µM
- TGI (SF-539 [17]): 4.9 µM
- CC50 (786-0): 91.2 µM
- TGI (Homo sapiens): 25.7 µM
- GI50 (SF-295): 11.5 µM
- GI50 (MCF7 [18]): 3.24 µM
- CC50 (SK-MEL-5 [19]): 50.1 µM
- GI50 (SK-MEL-28): 9.55 µM
- GI50 (HOP-92): 14.5 µM
- GI50 (HCT-15 [20]): 4.79 µM
- GI50 (SF-539 [21]): 1.82 µM
- GI50 (Malme-3M): 17 µM
- GI50 (RXF 393 [22]): 9.55 µM
- GI50 (MDA-MB-435 [23]): 7.94 µM
- TGI (TK-10 [24]): 20.9 µM
- CC50 (KM12): 43.7 µM
- CC50 (UACC-257 [25]): 51.3 µM
- CC50 (U-251 [26]): 38 µM
- CC50 (NCI-H322M): 50.1 µM
- TGI (HCT-15 [27]): 27.5 µM
- GI50 (SF-268): 9.55 µM
- TGI (CAKI-1): 63.1 µM
- TGI (A549): 25.7 µM
- GI50 (EKVX [28]): 17 µM
- GI50 (NCI-H46): 2.63 µM
- GI50 (MDA-N): 13.8 µM
- TGI (HT-29): 56.2 µM
- CC50 (EKVX [29]): 77.6 µM
- TGI (K562): 38 µM
- GI50 (Tumor Cell line): 97.7 µM
- CC50 (MCF7 [30]): 38.9 µM
- TGI (NCI/ADR-RES [31]): 41.7 µM
- GI50 (NCI-H23 [32]): 13.8 µM
- GI50 (TK-10 [33]): 8.51 µM
- GI50 (LOX IMVI): 5.01 µM
- GI50 (HOP-62 [34]): 0.049 µM
